Experimental data: patent US9567302B2, “Carbamate compounds and of making and using same” (Abide Therapeutics, Inc., priority 2012, dated 2017)

Tests used:
Type in all cases: biochemical
Parameters in all cases: from tissue
FAAH = target: T1, FAAH (Mus musculus, UniProt O08914); assay: In vitro competitive ABPP, % inhibition at fixed concentration, FAAH
T1 sequence (O08914 1-579): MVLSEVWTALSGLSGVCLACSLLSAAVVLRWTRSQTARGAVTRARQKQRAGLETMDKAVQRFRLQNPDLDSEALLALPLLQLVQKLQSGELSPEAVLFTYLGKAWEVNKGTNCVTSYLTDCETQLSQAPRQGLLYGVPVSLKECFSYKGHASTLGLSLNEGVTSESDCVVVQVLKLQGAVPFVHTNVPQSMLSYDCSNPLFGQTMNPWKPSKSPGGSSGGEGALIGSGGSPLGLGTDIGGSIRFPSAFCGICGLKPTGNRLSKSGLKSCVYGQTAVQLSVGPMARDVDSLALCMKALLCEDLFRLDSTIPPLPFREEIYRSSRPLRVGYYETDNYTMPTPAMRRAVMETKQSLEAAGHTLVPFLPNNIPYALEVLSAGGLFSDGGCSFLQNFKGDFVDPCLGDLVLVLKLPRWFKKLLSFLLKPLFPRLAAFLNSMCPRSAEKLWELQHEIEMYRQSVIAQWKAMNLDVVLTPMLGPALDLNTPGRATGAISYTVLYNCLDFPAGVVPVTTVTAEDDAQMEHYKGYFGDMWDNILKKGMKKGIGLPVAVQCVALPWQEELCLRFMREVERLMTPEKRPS
Experimental: (§1) In Vitro Competitive Activity-Based Protein Profiling.
(§2) Proteomes (mouse brain membrane fraction or cell lysates) (50 μL, 1.0 mg/ml total protein concentration) were preincubated with varying concentrations of inhibitors at 37° C. After 30 min, FP-Rh (1.0 μL, 50 μM in DMSO) was added and the mixture was incubated for another 30 min at 37° C. Reactions were quenched with SDS loading buffer (50 μL—4×) and run on SDS-PAGE. Following gel imaging, serine hydrolase activity was determined by measuring fluorescent intensity of gel bands corresponding to MAGL, ABHD6 and FAAH using ImageJ 1.43u software.

ABHD6 = target: T2, ABHD6 (Mus musculus, UniProt Q8R2Y0); assay: In vitro competitive ABPP, % inhibition at fixed concentration, ABHD6
T2 sequence (Q8R2Y0 1-336): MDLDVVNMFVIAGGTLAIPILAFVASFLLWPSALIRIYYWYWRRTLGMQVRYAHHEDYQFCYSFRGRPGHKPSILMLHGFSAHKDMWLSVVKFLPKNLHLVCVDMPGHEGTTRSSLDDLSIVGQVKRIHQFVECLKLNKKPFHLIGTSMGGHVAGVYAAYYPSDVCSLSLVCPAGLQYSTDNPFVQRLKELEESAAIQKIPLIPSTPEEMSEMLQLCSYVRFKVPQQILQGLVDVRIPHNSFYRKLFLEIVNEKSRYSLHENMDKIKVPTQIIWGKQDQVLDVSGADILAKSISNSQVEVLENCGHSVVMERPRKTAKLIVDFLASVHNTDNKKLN
Experimental: as §1, §2

MAGL = target: T3, MAGL (Mus musculus, UniProt O35678); assay: In vitro competitive ABPP, % inhibition at fixed concentration, MAGL
T3 sequence (O35678 1-303): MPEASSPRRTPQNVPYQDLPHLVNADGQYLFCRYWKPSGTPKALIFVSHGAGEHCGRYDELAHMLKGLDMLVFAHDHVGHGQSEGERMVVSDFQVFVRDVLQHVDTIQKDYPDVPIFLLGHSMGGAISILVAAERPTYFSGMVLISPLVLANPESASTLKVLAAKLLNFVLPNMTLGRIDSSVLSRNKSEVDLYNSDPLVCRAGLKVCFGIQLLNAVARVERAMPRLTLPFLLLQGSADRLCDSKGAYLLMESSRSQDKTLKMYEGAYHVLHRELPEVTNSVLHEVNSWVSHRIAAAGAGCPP
Experimental: as §1, §2

Row | inhibition at 1 µM (FAAH) | inhibition at 1 µM (ABHD6) | inhibition at 1 µM (MAGL) | inhibition at 10 µM (FAAH) | inhibition at 10 µM (ABHD6) | inhibition at 10 µM (MAGL) | SMILES
1 | < 25% | 25 to 75% | 25 to 75% | – | – | – | O=C(ON1C(=O)CCC1=O)N1CCN(Cc2cc(-c3ccccc3)on2)CC1 [Example 137, 2,5-Dioxopyrrolidin-1-yl 4-((5-phenylisoxazol-3-yl)methyl)piperazine-1-carboxylate]
2 | < 25% | 25 to 75% | 25 to 75% | – | – | – | Cn1cc(CN2CCN(C(=O)ON3C(=O)CCC3=O)CC2)c(-c2ccccc2Cl)n1 [Example 140, 2,5-Dioxopyrrolidin-1-yl 4-{[3-(2-chlorophenyl)-1-methyl-1H-pyrazol-4-yl]methyl}piperazine-1-carboxylate]
3 | < 25% | 25 to 75% | 25 to 75% | – | – | – | CC(C)n1cc(CN2CCN(C(=O)ON3C(=O)CCC3=O)CC2)c(-c2ccccc2)n1 [Example 141, 2,5-Dioxopyrrolidin-1-yl 4-{[3-phenyl-1-(propan-2-yl)-1H-pyrazol-4-yl]methyl}piperazine-1-carboxylate]
4 | < 25% | 25 to 75% | 25 to 75% | – | – | – | CC(C)n1cc(CN2CCN(C(=O)ON3C(=O)CCC3=O)CC2)c(-c2ccccc2Cl)n1 [Example 142, 2,5-Dioxopyrrolidin-1-yl 4-{[3-(2-chlorophenyl)-1-(propan-2-yl)-1H-pyrazol-4-yl]methyl}piperazine-1-carboxylate]
5 | < 25% | 25 to 75% | 25 to 75% | – | – | – | Cc1cc(CN2CCN(C(=O)ON3C(=O)CCC3=O)CC2)n(C(C)C)n1 [Example 146, 2,5-Dioxopyrrolidin-1-yl 4-{[3-methyl-1-(propan-2-yl)-1H-pyrazol-5-yl]methyl}piperazine-1-carboxylate]
6 | < 25% | < 25% | < 25% | – | – | – | O=C(ON1C(=O)CCC1=O)N1CCN(Cc2cnc3ccccn23)CC1 [Example 147, 2,5-Dioxopyrrolidin-1-yl 4-(imidazo[1,2-a]pyridin-3-ylmethyl)piperazine-1-carboxylate]
7 | – | – | – | < 25% | 25 to 75% | > 75% | O=C(ON1C(=O)CCC1=O)N1CCN(C(c2ccc3c(c2)OC(F)(F)O3)c2ccc3c(c2)OC(F)(F)O3)CC1 [Example 150, 2,5-Dioxopyrrolidin-1-yl 4-[bis(2,2-difluoro-2H-1,3-benzodioxol-5-yl)methyl]piperazine-1-carboxylate]
8 | < 25% | 25 to 75% | 25 to 75% | – | – | – | Cn1ncc2cc(C(c3ccc4c(cnn4C)c3)N3CCN(C(=O)ON4C(=O)CCC4=O)CC3)ccc21 [Example 154, 2,5-dioxopyrrolidin-1-yl 4-(bis(1-methyl-1H-indazol-5-yl)methyl)piperazine-1-carboxylate]
9 | < 25% | < 25% | 25 to 75% | – | – | – | O=C(ON1C(=O)CCC1=O)N1CCN(C(c2cccnc2)c2cccnc2)CC1 [Example 155, 2,5-Dioxopyrrolidin-1-yl 4-(di(pyridin-3-yl)methyl)piperazine-1-carboxylate]
10 | < 25% | 25 to 75% | 25 to 75% | – | – | – | O=C(ON1C(=O)CCC1=O)N1CCN(C(c2ccc3c(c2)OCO3)c2ccc3c(c2)OCO3)CC1 [Example 156, 2,5-Dioxopyrrolidin-1-yl 4-[bis(2H-1,3-benzodioxol-5-yl)methyl]piperazine-1-carboxylate]
11 | < 25% | 25 to 75% | 25 to 75% | – | – | – | O=C(ON1C(=O)CCC1=O)N1CCN(C(c2ccc3c(c2)COC3)c2ccc3c(c2)COC3)CC1 [Example 157, 2,5-Dioxopyrrolidin-1-yl 4-[bis(1,3-dihydro-2-benzofuran-5-yl)methyl]piperazine-1-carboxylate]
12 | < 25% | < 25% | 25 to 75% | – | – | – | O=C(ON1C(=O)CCC1=O)N1CCC(C(O)(c2ccc3c(c2)COC3)c2ccc3c(c2)COC3)CC1 [Example 158, 2,5-Dioxopyrrolidin-1-yl 4-[bis(1,3-dihydro-2-benzofuran-5-yl)(hydroxy)methyl]piperidine-1-carboxylate]
13 | < 25% | 25 to 75% | 25 to 75% | – | – | – | Cc1cc(-c2ccc(CN3CCN(C(=O)ON4C(=O)CCC4=O)CC3)c(C)c2)ccn1 [Example 159, 2,5-Dioxopyrrolidin-1-yl 4-{[2-methyl-4-(2-methylpyridin-4-yl)phenyl]methyl}piperazine-1-carboxylate]
14 | < 25% | > 75% | > 75% | – | – | – | O=C(ON1C(=O)CCC1=O)N1CCN(Cc2ccc(-c3cccc(F)c3)cc2F)CC1 [Example 162, 2,5-Dioxopyrrolidin-1-yl 4-{[2-fluoro-4-(3-fluorophenyl)phenyl]methyl}piperazine-1-carboxylate]
15 | < 25% | 25 to 75% | 25 to 75% | – | – | – | Cc1cccc(-c2ccc(CN3CCN(C(=O)ON4C(=O)CCC4=O)CC3)c(C)c2)c1 [Example 163, 2,5-Dioxopyrrolidin-1-yl 4-{[2-methyl-4-(3-methylphenyl)phenyl]methyl}piperazine-1-carboxylate]
16 | < 25% | > 75% | > 75% | – | – | – | O=C(ON1C(=O)CCC1=O)N1CCN(Cc2ccc(-c3ccccc3)cc2F)CC1 [Example 164, 2,5-Dioxopyrrolidin-1-yl 4-[(2-fluoro-4-phenylphenyl)methyl]piperazine-1-carboxylate]
17 | < 25% | > 75% | 25 to 75% | – | – | – | Cc1cc(-c2ccc(CN3CCN(C(=O)ON4C(=O)CCC4=O)CC3)c(F)c2)ccn1 [Example 166, 2,5-Dioxopyrrolidin-1-yl 4-{[2-fluoro-4-(2-methylpyridin-4-yl)phenyl]methyl}piperazine-1-carboxylate]
18 | < 25% | 25 to 75% | > 75% | – | – | – | COc1cc(-c2ccccc2)ccc1CN1CCN(C(=O)ON2C(=O)CCC2=O)CC1 [Example 167, 2,5-Dioxopyrrolidin-1-yl 4-[(2-methoxy-4-phenylphenyl)methyl]piperazine-1-carboxylate]
19 | < 25% | 25 to 75% | 25 to 75% | – | – | – | O=C(ON1C(=O)CCC1=O)N1CCN(Cc2ccc(-c3cccc(F)c3)cn2)CC1 [Example 168, 2,5-Dioxopyrrolidin-1-yl 4-{[5-(3-fluorophenyl)pyridin-2-yl]methyl}piperazine-1-carboxylate]
20 | < 25% | > 75% | 25 to 75% | – | – | – | Cc1cccc(-c2ccc(CN3CCN(C(=O)ON4C(=O)CCC4=O)CC3)c(Oc3ccccc3)c2)c1 [Example 169, 2,5-Dioxopyrrolidin-1-yl 4-{[4-(3-methylphenyl)-2-phenoxyphenyl]methyl}piperazine-1-carboxylate]
21 | < 25% | 25 to 75% | 25 to 75% | – | – | – | Cc1cc(-c2cccnc2C)ccc1CN1CCN(C(=O)ON2C(=O)CCC2=O)CC1 [Example 170, 2,5-Dioxopyrrolidin-1-yl 4-{[2-methyl-4-(2-methylpyridin-3-yl)phenyl]methyl}piperazine-1-carboxylate]
22 | < 25% | 25 to 75% | 25 to 75% | – | – | – | Cc1cc(-c2ccncc2C)ccc1CN1CCN(C(=O)ON2C(=O)CCC2=O)CC1 [Example 171, 2,5-Dioxopyrrolidin-1-yl 4-{[2-methyl-4-(3-methylpyridin-4-yl)phenyl]methyl}piperazine-1-carboxylate]
23 | < 25% | 25 to 75% | 25 to 75% | – | – | – | Cc1cc(-c2cccnc2)ccc1CN1CCN(C(=O)ON2C(=O)CCC2=O)CC1 [Example 172, 2,5-Dioxopyrrolidin-1-yl 4-{[2-methyl-4-(pyridin-3-yl)phenyl]methyl}piperazine-1-carboxylate]
